Test results from patent publication US20240269170A1, “Treatment of Inflammatory Conditions or Diseases” (Queen Mary University of London, priority 2021, published 2024).

System: G6PI peptide induced arthritis in DBA/1 mice
Experiment: G6PI peptide induced arthritis, transfer of monocytes from naive mice pre-incubated with MCTR3
Assay type: in vivo, mouse
Details: monocytes incubated with 10 μM RG108 for 15 min before 1 nM MCTR3
Protocol: FIG. 3: MCTR3 reprograms monocyte responses to reduce inflammation and repair inflamed joints. (A-B) Antigen induced arthritis was initiated by administering G6PI peptide (10 μg/mouse) in CFA via intradermal injection to DBA/1 mice. After 25 days mice were treated with 0.5×10^6 monocytes from naive mice that had been pre-incubated with vehicle (PBS+0.1% EtOH) or 1 nM MCTR3 for 90 min at 37° C. via i.v. injection. Disease course was monitored daily by assessing A) clinical scores and B) oedema. Results are mean±SEM and expressed as percent change from day of treatment n=5 per group from two separate experiments. Results are mean±SEM. Statistical differences were calculated using a Two-way ANOVA.
FIG. 11: DNA methyltransferase inhibition prevents MCTR3 reprogramming of protective monocyte responses. […] Disease course was assessed by evaluating A) clinical scores and B) oedema relative to the day of treatment. Results are mean±SEM and expressed as percentage change from day of treatment. n=5 per group and statistics were calculated using a Two-way ANOVA. […]

Q: Which “protective actions of MCTR3 (ability of reprogrammed monocytes to regulate joint inflammation)” value does the source give for `O=C(O)C(Cc1c[nH]c2ccccc12)N1C(=O)c2ccccc2C1=O` (stereo not shown) [RG108] here?
A: abolished
